Results reported in patent publication US11026972B2, “Methods for generating macrophages with enhanced cancer phagocytosis” (Georgia State University Research Foundation, Inc., priority 2016, dated 2021).

B1: IL-17: recombinant murine cytokine interleukin IL-17 (also known as IL-17A), PeproTech (protein, UniProt Q62386 26-158, looked up)
Interleukin-17A: AAIIPQSSACPNTEAKDFLQNVKVNLKVFNSLGAKVSSRRPSDYLNRSTSPWTLHRNEDPDRYPSVIWEAQCRHQRCVNAEGKLDHHMNSVLIQQEILVLKREPESCPFTFRVEKMLVGVGCTCVASIVRQAA

What was measured:
[1] = test system: splenic macrophages, PEMs and BMDMs; assay: Ex vivo macrophage phagocytosis toward RBCs and other self-cells after activation; type: cell-based, mouse; details: for conversion to potent phagocytes toward self: PEMs and BMDMs from WT and mutant mice; for phagocytosis toward CD47^− RBCs of culture-retarded WT spleen macrophages: after 2 days of culturing; for phagocytosis toward RBCs: splenic macrophages from SIRPα^−/− or CD47^−/− mice
How it was run: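 Mouse splenic or peritoneal macrophages (2 h adherent selection) or BMDMs (M-CSF ~10 ng/ml, 5-6 days) were co-incubated 30 min at 37 °C with CFSE-labelled RBCs (1:5-10) or other cells (1:1-2). Uptake was scored by fluorescence microscopy and/or FACS with anti-F4/80 or anti-CD11b macrophage labelling.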

[2] = test system: cell surface LRP1 and CRT on PEMs; assay: Macrophage cell surface CRT and LRP1 by FACS; type: cell-based, mouse; details: after treatment with phagocytic activation factor
Procedure: FIGS. 6A-6D include data related to our investigation of possible phagocytic receptors on macrophages for phagocytosing healthy self-cells. […] PEM (unstimulated) phagocytosis toward apoptotic B16 cells was tested in the presence of same antibodies and RAP as in A. Error bars are ±SEM. ***P<0.001 vs. phagocytosis in the presence of control IgG. […] PEMs, with or without (ctl.) treatment with LPS, IL-17, IL-6, or PMA, were labeled for cell surface LRP1 and CRT followed by FACS. Increased and decreased expressions were marked by arrows. […] Activated PEM phagocytosis toward RBCs was tested in the presence of antibodies against SR-A, Fc receptor Cd16/32 (10 μg/mL of each), inhibitors against SR-B (BLT1, 5 μM), dectin (laminarin, 100 μg/mL), complement (heparin, 40 U/mL), and antibody against Cd11b (10 μg/mL). Error bars are ±SEM. ***P<0.001 vs. the respective control without inhibition. Data presented in each panel represent at least three independent experiments with n≥4, if applicable.

| Molecule | conversion to potent phagocytes toward self [1] | phagocytosis of other cell types ([1]; activated macrophages, CD47-SIRPα-controllable manner) | phagocytosis toward CD47^− RBCs of culture-retarded WT spleen macrophages [1] | phagocytosis toward RBCs [1] | cell surface CRT or LRP1 on PEMs [2] |
| --- | --- | --- | --- | --- | --- |
| lipopolysaccharide [LPS] | converted all PEMs and BMDMs | capable of phagocytizing murine splenocytes, B16 melanoma cells, and EL4 lymphoblasts | dramatically rekindled | rapidly induced their phagocytosis toward RBCs | induced an increase in CRT |
| B1 | converted all PEMs and BMDMs | – | dramatically rekindled | rapidly induced their phagocytosis toward RBCs | – |
